# ChEMBL document CHEMBL1143329, “Discovery and SAR of benzyl phenyl ethers as inhibitors of bacterial phenylalanyl-tRNA synthetase” (Bioorg Med Chem Lett, 2009)
# Assays:
# [1] = Inhibition of Streptococcus pneumoniae phenylalanyl-tRNA synthetase
# [2] = Inhibition of Haemophilus influenzae phenylalanyl-tRNA synthetase
# Streptococcus pneumoniae = experiment: Antibacterial activity against wild type Streptococcus pneumoniae; type: functional
# Haemophilus influenzae [3] = experiment: Antibacterial activity against wild type Haemophilus influenzae; type: functional
# Haemophilus influenzae [4] = experiment: Antibacterial activity against AcrA pump deficient Haemophilus influenzae; type: functional
# [5] = Apparent intrinsic clearance in human liver microsomes; type: ADME, Microsome
# [6] = target: Voltage-gated inwardly rectifying potassium channel KCNH2 (Homo sapiens, UniProt Q12809); experiment: Displacement of [3H]dofetilide from human ERG channel
# Cytochrome P450 2C9 = Cytochrome P450 2C9 (Homo sapiens, UniProt P11712); experiment: Inhibition of human CYP2C9 at 3 uM; type: ADME
# [7] = Membrane permeability by PAMPA; type: ADME; conditions: read-out: Activity
# Cytochrome P450 3A4 = Cytochrome P450 3A4 (Homo sapiens, UniProt P08684); experiment: Inhibition of human CYP3A4 at 3 uM; type: ADME
# Cytochrome P450 1A2 = target: T1, Cytochrome P450 1A2 (Homo sapiens, UniProt P05177); experiment: Inhibition of human CYP1A2 at 3 uM; type: ADME; conditions: 3 µM
# T1 sequence (P05177 whole entry): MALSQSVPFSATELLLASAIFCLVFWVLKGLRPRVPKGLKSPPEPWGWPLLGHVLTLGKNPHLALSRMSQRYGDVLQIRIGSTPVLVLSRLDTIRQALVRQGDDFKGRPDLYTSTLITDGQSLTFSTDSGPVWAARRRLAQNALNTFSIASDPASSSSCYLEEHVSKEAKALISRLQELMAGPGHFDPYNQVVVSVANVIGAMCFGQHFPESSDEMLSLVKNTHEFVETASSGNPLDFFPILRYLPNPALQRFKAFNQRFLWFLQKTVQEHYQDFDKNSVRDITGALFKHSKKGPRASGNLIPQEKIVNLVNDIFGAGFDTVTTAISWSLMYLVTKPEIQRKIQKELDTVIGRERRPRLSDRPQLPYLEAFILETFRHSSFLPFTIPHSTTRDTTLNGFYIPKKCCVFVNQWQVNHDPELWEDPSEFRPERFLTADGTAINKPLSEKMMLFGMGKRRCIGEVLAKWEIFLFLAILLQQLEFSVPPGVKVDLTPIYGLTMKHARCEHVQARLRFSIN
# Cytochrome P450 2D6 = Cytochrome P450 2D6 (Homo sapiens, UniProt P10635); experiment: Inhibition of human CYP2D6 at 3 uM; type: ADME
# Chain of Cytochrome P450 2D6 (P10635 whole entry): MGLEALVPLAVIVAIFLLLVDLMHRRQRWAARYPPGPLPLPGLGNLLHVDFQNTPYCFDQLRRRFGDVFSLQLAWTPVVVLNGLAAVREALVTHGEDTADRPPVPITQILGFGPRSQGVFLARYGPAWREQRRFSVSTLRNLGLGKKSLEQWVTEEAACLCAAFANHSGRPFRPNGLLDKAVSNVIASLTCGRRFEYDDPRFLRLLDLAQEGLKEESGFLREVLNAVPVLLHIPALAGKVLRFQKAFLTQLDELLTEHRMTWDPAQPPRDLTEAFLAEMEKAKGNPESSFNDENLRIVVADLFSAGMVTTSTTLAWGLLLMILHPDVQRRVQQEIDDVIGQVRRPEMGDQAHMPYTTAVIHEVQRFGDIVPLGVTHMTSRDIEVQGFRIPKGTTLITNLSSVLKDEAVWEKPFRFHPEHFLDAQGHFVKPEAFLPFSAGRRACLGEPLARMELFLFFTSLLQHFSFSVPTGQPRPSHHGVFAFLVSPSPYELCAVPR
# Chain of Voltage-gated inwardly rectifying potassium channel KCNH2 (Q12809 whole entry): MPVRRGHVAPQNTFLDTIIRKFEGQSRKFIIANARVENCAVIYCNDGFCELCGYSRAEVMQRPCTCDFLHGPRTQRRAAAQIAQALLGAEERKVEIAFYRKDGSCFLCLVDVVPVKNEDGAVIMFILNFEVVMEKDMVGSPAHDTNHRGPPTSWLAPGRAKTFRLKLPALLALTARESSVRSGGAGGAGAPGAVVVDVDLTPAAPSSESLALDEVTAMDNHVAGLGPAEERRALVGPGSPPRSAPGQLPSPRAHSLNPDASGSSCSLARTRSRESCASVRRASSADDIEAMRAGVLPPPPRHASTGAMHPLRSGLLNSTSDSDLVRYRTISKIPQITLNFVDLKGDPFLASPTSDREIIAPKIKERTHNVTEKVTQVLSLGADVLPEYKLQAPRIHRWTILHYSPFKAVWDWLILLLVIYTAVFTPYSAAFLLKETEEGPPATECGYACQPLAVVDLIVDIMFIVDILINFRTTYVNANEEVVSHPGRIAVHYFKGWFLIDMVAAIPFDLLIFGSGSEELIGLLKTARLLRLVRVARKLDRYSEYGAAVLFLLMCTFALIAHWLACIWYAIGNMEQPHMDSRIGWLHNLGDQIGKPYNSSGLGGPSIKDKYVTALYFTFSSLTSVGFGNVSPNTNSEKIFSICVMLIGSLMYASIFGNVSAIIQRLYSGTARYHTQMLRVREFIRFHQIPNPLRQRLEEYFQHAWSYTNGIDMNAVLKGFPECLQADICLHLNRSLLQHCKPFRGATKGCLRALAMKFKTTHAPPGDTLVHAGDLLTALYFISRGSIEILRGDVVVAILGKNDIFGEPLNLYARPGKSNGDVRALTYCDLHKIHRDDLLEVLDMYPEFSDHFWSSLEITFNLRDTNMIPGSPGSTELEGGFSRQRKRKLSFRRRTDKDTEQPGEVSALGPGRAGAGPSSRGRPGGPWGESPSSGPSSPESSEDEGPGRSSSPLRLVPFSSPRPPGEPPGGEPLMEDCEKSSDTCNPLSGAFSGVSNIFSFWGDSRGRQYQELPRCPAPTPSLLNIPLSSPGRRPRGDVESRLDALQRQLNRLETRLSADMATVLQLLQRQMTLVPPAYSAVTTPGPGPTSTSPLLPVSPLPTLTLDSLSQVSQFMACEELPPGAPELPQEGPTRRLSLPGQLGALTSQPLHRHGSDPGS
# Chain of Cytochrome P450 3A4 (P08684 whole entry): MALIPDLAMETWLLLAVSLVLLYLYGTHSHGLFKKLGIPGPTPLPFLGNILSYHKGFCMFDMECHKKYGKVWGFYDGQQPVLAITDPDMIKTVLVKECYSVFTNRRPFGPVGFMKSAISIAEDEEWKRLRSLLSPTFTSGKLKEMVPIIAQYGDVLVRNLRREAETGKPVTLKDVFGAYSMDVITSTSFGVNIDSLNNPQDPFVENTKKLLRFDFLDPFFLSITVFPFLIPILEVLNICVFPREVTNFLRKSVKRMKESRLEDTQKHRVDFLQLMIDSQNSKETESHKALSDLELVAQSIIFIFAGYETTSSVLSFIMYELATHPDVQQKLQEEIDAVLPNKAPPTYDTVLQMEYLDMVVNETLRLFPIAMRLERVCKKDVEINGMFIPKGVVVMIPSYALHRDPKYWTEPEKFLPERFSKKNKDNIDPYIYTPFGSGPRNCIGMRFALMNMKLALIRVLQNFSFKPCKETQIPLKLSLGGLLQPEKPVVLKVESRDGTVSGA
# Chain of Cytochrome P450 2C9 (P11712 whole entry): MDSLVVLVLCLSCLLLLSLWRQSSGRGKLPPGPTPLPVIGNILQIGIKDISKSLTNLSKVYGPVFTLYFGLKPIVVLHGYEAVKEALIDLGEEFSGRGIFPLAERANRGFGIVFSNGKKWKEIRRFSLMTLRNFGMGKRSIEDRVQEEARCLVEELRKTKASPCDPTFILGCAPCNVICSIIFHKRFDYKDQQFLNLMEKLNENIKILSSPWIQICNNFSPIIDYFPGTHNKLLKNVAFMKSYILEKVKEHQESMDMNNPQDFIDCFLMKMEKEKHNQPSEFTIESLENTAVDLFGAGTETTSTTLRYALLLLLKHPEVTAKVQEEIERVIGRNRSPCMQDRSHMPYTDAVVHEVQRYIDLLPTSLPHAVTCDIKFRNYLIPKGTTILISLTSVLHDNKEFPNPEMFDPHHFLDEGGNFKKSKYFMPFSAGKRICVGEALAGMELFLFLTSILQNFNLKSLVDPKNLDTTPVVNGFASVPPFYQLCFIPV
smiles,measurement,setting,value
CCc1nnc(-c2ccc(OCc3cccc(Cl)c3)c(Cl)c2)o1,IC50,[1],76 µM
same,IC50,[2],11 µM
Cc1nnc(-c2ccc(OCc3cccc(Cl)c3)c(Cl)c2)o1,IC50,[1],95 µM
same,IC50,[2],6.6 µM
COC(=O)c1ccc(OCc2cccc(Cl)c2)cc1,IC50,[1],12 µM
same,IC50,[2],3.1 µM
COC(=O)c1ccc(CNc2cccc(Cl)c2)cc1,IC50,[1],> 64 µM
same,IC50,[2],57 µM
CC(CO)NC(=O)c1ccc(OCc2cccc(Cl)c2)c(Cl)c1 (stereo unspecified),IC50,[1],483 µM
same,MIC,Streptococcus pneumoniae,32 µg/mL
same,MIC,Haemophilus influenzae [3],> 32 µg/mL
same,MIC,Haemophilus influenzae [4],4 µg/mL
same,IC50,[2],29 µM
COC(=O)c1ccc(NC(=O)c2cccc(Cl)c2)c(C)c1,IC50,[1],> 64 µM
same,IC50,[2],> 64 µM
COC(=O)c1ccc(C(=O)Nc2cccc(Cl)c2)cc1,IC50,[1],> 64 µM
same,IC50,[2],> 64 µM
COC(=O)c1ccc(/C=C/c2cccc(Cl)c2)c(C)c1,IC50,[1],0.2 µM
same,IC50,[2],0.13 µM
NC(=O)c1nnc(-c2cc(Cl)c(OCc3cccc(Cl)c3)cn2)o1,IC50,[1],60 µM
same,IC50,[2],2.7 µM
NC(=O)Cc1nnc(-c2ccc(OCc3cccc(Cl)c3)c(Cl)c2)o1,IC50,[1],126 µM
same,IC50,[2],1.7 µM
CC(CO)NC(=O)c1ccc(OCc2cc(Cl)ccn2)c(Cl)c1 (stereo unspecified),IC50,[1],43 µM
same,MIC,Streptococcus pneumoniae,32 µg/mL
same,MIC,Haemophilus influenzae [3],32 µg/mL
same,MIC,Haemophilus influenzae [4],2 µg/mL
same,IC50,[2],4.6 µM
O=C(O)Cc1nnc(-c2ccc(OCc3cccc(Cl)c3)c(Cl)c2)o1,IC50,[1],110 µM
same,IC50,[2],11 µM
NC(=O)c1nnc(-c2ccc(OCc3cccc(Cl)c3)c(Cl)c2)o1,IC50,[1],81 µM
same,IC50,[2],2.6 µM
COC(=O)c1ccc(OCc2cccc(Cl)c2)c(Cl)c1,IC50,[1],0.091 µM
same,IC50,[2],0.017 µM
CN1CCN(C(=O)c2ccc(OCc3cccc(Cl)c3)c(Cl)c2)CC1,IC50,[1],2.3 µM
same,IC50,[2],0.15 µM
COC(=O)c1ccc(NCc2cccc(Cl)c2)c(C)c1,IC50,[1],6.1 µM
same,IC50,[2],3.5 µM
COC(=O)c1ccc(N(C)Cc2cccc(Cl)c2)c(C)c1,IC50,[1],3.5 µM
same,IC50,[2],0.17 µM
Cc1cc(C(=O)N2CCN(C)C(=O)C2)ccc1NS(=O)(=O)c1cccc(Cl)c1,IC50,[1],> 64 µM
same,IC50,[2],> 64 µM
Cc1cc(C(=O)N2CCN(C(=O)C3CCCO3)CC2)ccc1OCc1cccc(Cl)c1 (stereo unspecified),CLint scaled,[5],55.1 mL/min/kg
same,Ki,[6],0.0239 µM
same,Activity,Cytochrome P450 2C9,Not Active
same,IC50,[1],3.7 µM
same,Papp,[7],10.8 ×10⁻⁶ cm/s
same,Activity,Cytochrome P450 3A4,Not Active
same,IC50,[2],0.067 µM
same,Activity,Cytochrome P450 1A2,Not Active
same,Activity,Cytochrome P450 2D6,Not Active
Cc1cc(C(=O)N2CCN(C(=O)C3CCCO3)CC2)ccc1CC(O)c1cccc(Cl)c1 (stereo unspecified),IC50,[1],11 µM
same,IC50,[2],0.28 µM
Cc1cc(C(=O)N2CCC(C(N)=O)CC2)ccc1OCc1cccc(Cl)c1,IC50,[2],0.15 µM
Cc1cc(C(=O)N2CCC(C(N)=O)CC2)ccc1CCc1cccc(Cl)c1,IC50,[1],46 µM
same,IC50,[2],0.36 µM
Cn1c(-c2cccc(Cl)c2)nc(=O)c2cc(C(=O)N3CCC(C(N)=O)CC3)ccc21,IC50,[1],> 64 µM
same,IC50,[2],> 64 µM
CCN(CC)CCN(C)S(=O)(=O)c1ccc(OCc2cccc(Cl)c2)c(Cl)c1,IC50,[1],79 µM
same,IC50,[2],1.9 µM
CC(=O)Nc1nnc(-c2ccc(OCc3cccc(Cl)c3)c(Cl)c2)o1,IC50,[1],28 µM
same,IC50,[2],1.3 µM
Cc1ccc(C(=O)N2CCN(S(=O)(=O)c3ccc(OCc4cccc(Cl)c4)c(Cl)c3)CC2)cc1,IC50,[1],12 µM
same,IC50,[2],1.9 µM
COC(=O)c1ccc(OCc2cccc(Cl)c2)c(C)c1,IC50,[1],0.097 µM
same,IC50,[2],0.034 µM
COC(=O)c1ccc(OCc2cc(F)cc(F)c2)c(Cl)c1,IC50,[1],0.16 µM
same,IC50,[2],0.03 µM
COC(=O)c1ccc(OCc2ccc(F)c(F)c2)c(Cl)c1,IC50,[1],0.12 µM
same,IC50,[2],0.0087 µM
CN1CCN(C(=O)c2ccc(COc3cccc(Cl)c3)c(Cl)c2)CC1,IC50,[2],0.84 µM
Cc1cc(C(=O)N2CCN(C)CC2)ccc1C(CO)c1cccc(Cl)c1 (stereo unspecified),IC50,[1],> 64 µM
same,IC50,[2],> 64 µM
CN1CCN(C(=O)c2ccc(OCc3cccc(Cl)c3)c(Cl)c2)CC1=O,CLint scaled,[5],< 7.6 mL/min/kg
same,Ki,[6],0.0372 µM
same,Activity,Cytochrome P450 2C9,Not Active
same,IC50,[1],1.3 µM
same,Papp,[7],16.4 ×10⁻⁶ cm/s
same,Activity,Cytochrome P450 3A4,Not Active
same,IC50,[2],0.038 µM
same,Activity,Cytochrome P450 1A2,Not Active
same,Activity,Cytochrome P450 2D6,Not Active
Nc1nnc(-c2cc(Cl)c(OCc3cccc(Cl)c3)cn2)o1,IC50,[1],50 µM
CN1CCN(C(=O)c2ccc(CS(=O)(=O)c3cccc(Cl)c3)c(Cl)c2)CC1=O,IC50,[1],> 64 µM
same,IC50,[2],> 64 µM
O=C(NCCCCO)c1ccc(OCc2cc(Cl)ccn2)c(Cl)c1,IC50,[1],34 µM
same,IC50,[2],16 µM
O=C(NCCN1CCOCC1)c1ccc(OCc2cccc(Cl)c2)c(Cl)c1,IC50,[1],438 µM
same,IC50,[2],14 µM
OCCc1nnc(-c2ccc(OCc3cccc(Cl)c3)c(Cl)c2)o1,IC50,[1],87 µM
same,IC50,[2],3.1 µM
O=C(NCCN1CCOCC1)c1cc(Cl)c(OCc2cccc(Cl)c2)cn1,IC50,[1],65 µM
same,MIC,Streptococcus pneumoniae,8 µg/mL
same,MIC,Haemophilus influenzae [3],32 µg/mL
same,MIC,Haemophilus influenzae [4],1 µg/mL
same,IC50,[2],8 µM
O=C(NC1CCC(O)CC1)c1cc(Cl)c(OCc2cccc(Cl)c2)cn1 (stereo unspecified),IC50,[1],28 µM
same,IC50,[2],1.5 µM
COC(=O)c1ccc([C@H](O)[C@@H](O)c2cccc(Cl)c2)c(C)c1,IC50,[1],> 64 µM
same,IC50,[2],6.5 µM
COC(=O)c1ccc([C@@H](O)[C@H](O)c2cccc(Cl)c2)c(C)c1,IC50,[1],> 64 µM
same,IC50,[2],> 64 µM
Clc1cccc(COc2ccc(-c3nnco3)cc2Cl)c1,IC50,[1],156 µM
same,IC50,[2],11 µM
CSc1nnc(-c2ccc(OCc3cccc(Cl)c3)c(Cl)c2)o1,IC50,[1],81 µM
same,IC50,[2],5.5 µM
C[S+]([O-])c1nnc(-c2ccc(OCc3cccc(Cl)c3)c(Cl)c2)o1 (stereo unspecified),IC50,[1],36 µM
same,IC50,[2],1.5 µM
O=C(NCC1CC1)c1ccc(OCc2cccc(Cl)c2)c(Cl)c1,IC50,[1],393 µM
same,IC50,[2],57 µM
O=C(NCC1CC1)c1cc(Cl)c(OCc2cccc(Cl)c2)cn1,IC50,[1],50 µM
same,IC50,[2],30 µM
COC(=O)c1ccc(CN(C)c2cccc(Cl)c2)cc1,IC50,[1],> 64 µM
same,IC50,[2],> 64 µM
CN1CCN(C(=O)c2ccc(S(=O)(=O)Nc3cccc(Cl)c3)c(Cl)c2)CC1=O,IC50,[1],> 64 µM
same,IC50,[2],> 64 µM
Nc1nnc(-c2ccc(OCc3cccc(Cl)c3)c(Cl)c2)o1,IC50,[1],42 µM
same,IC50,[2],2.3 µM
CCn1nccc1NC(=O)c1cc(Cl)c(OCc2cccc(Cl)c2)cn1,IC50,[1],34 µM
same,IC50,[2],24 µM
CS(=O)(=O)c1nnc(-c2ccc(OCc3cccc(Cl)c3)c(Cl)c2)o1,IC50,[1],53 µM
same,MIC,Streptococcus pneumoniae,> 32 µg/mL
same,MIC,Haemophilus influenzae [3],32 µg/mL
same,MIC,Haemophilus influenzae [4],1 µg/mL
same,IC50,[2],2.1 µM
CN1CCN(C(=O)c2ccc(C[S+]([O-])c3cccc(Cl)c3)c(Cl)c2)CC1=O (stereo unspecified),IC50,[1],23 µM
same,IC50,[2],2.4 µM
O=C(NCCCCO)c1ccc(OCc2cccc(Cl)c2)c(Cl)c1,CLint scaled,[5],< 7.6 mL/min/kg
same,Ki,[6],> 0.1 µM
same,Activity,Cytochrome P450 2C9,Not Active
same,IC50,[1],254 µM
same,Papp,[7],1.22 ×10⁻⁶ cm/s
same,Activity,Cytochrome P450 3A4,Not Active
same,IC50,[2],22 µM
same,Activity,Cytochrome P450 1A2,Not Active
same,Activity,Cytochrome P450 2D6,Not Active
